# Reference: patent US20050009886A1, “1,4-Dihydropyridine derivative with a guaiacoxypropanolamine and/or phenoxypropanolamine moiety” (priority 1998, published 2005)
# Legend:
# [1] = biological target: T1, β-adrenoreceptor (β1) (Rattus norvegicus, UniProt P18090); assay: Isolated right atrium, L-isoproterenol-induced heart rate increase (pA2); design: species or system Wistar rat
# T1 construct: The right and left atria were then separated; from tissue; host or cells: isolated rat right atrium (spontaneously beating) and left atrium (electrically paced)
# Description: The right and left atria were then separated. The spontaneously-beating right atria was clipped on both end by heart shaped clips, where one end was fixed at the bottom of 10 ml of tissue bath made of physiological saline solution, and temperature maintained at 37° C. The other end of the atria was connected to a force transducer, and isometric contractions and beating rate of the right atria were recorded by COULBOURN AT-High-Speed VideoFigure. After the samples were given 250 mg of contractions and reach equilibrium the following experiments were carried out: • (a) β-adrenoceptor blocking action
# Cumulative administration interval was when the previous concentration reached its greatest effect, the next concentration would be immediately given.
# The equation is as follows: pA2=−Log KB Log(DRADJ−1)=nlog[B]−LogKB [formula]
# [B] Test compound concentration in moles • KB: equilibrium dissociation constant • n: value of slope DR: test EC50 divided by control EC50 • CF: EC50 of second or third control groups divided by EC50 of first control group (c) Effect of Compound on the Increase of Spontaneous Beating in Right Atrium Caused by CaCl2
# [2] = biological target: T2, β2-adrenoceptor (Cavia porcellus, UniProt Q8K4Z4); assay: Direct effect (intrinsic sympathomimetic activity) on reserpine pretreated isolated tracheal; design: species or system guinea pig; details: cumulative 10^−10˜3×10^−6 M, reserpine pretreated tracheal
# T2 construct: a portion of tracheal approximately 4 cm long was removed; from tissue; host or cells: isolated trachea of reserpine-pretreated guinea pigs
# Description: 18˜24 hours before the experiment, 5 mg/kg of reserpine was injected via abdominal cavity to remove all endogenous catecholamines. Prior experiment, guinea pigs were sacrificed, the tracheal was immediately removed and placed in Kreb's solution aerated with air mixture and maintained at room temperature of 22˜25° C. […] Then the tissue was repeatedly washed with Kreb's solution.
# T1 sequence (P18090 whole entry): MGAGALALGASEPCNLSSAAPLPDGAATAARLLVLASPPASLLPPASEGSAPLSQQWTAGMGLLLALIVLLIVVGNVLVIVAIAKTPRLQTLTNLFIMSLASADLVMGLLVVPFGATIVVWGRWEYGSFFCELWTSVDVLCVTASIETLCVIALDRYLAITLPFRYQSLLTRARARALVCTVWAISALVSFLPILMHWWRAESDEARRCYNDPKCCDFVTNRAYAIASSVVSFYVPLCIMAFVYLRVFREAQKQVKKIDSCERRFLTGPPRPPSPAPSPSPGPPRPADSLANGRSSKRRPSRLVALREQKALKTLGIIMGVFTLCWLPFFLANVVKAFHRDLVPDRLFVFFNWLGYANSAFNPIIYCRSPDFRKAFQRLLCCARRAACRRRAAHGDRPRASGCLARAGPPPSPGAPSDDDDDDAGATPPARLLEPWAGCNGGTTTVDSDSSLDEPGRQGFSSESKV
# T2 sequence (Q8K4Z4 whole entry): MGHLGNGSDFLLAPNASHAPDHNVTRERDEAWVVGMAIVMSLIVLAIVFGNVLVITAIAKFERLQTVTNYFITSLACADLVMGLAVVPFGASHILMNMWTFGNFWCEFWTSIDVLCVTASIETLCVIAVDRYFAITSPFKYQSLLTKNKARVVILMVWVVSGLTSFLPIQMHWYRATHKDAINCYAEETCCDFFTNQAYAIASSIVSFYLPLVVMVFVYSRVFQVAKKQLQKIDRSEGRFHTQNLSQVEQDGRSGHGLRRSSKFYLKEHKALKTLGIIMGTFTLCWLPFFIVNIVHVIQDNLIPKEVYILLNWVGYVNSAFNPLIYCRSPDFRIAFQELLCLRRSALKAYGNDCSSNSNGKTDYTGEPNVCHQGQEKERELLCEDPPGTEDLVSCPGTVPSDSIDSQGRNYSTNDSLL
structure (smiles),measurement,setting,value
"COc1cc(C=O)ccc1OCC(O)CNC(C)(C)C (stereo not drawn) [Vanidilol, reference compound]",effect on right atrium relative to tracheal (selectivity ratio of β1 type adrenoceptor),[1]; from average pA2 difference between right atrium and tracheal,0.98 ×
same,selectivity on the type of β-adrenoceptor,[1]; β1:β2,non-selective
same,direct tracheal relaxation effect,[2],dose-dependant tracheal relaxation effect
